Patent US12570603B2, “FABP4/5 inhibitors, methods of use and methods of making” (Novius Therapeutics, LLC, priority 2021, dated 2026)
Read-outs that look alike come from different tables or passages of the source.

Assays:
[1] = system: TNBC lines and MCF7; assay: Proliferation assay in multiple TNBC lines and MCF7, MB-231 shF5 as control; type: cell-based
Method: (§1) 2000 cells were plated in each well of 96-well plate. The next day cells were treated with compounds and incubated in Incucyte for 4 days. Images taken every 4 hours for the duration of the time were analyzed to calculate percentage of confluency in response to the treatments. Growth inhibition was calculated as 1−(percentage of viable cells out of untreated cells).

[2] = system: FABP5 together with PPARδ; assay: Transcriptional activation assay in cells overexpressing FABP5, with PPARδ activator GW0742; type: cell-based; conditions: together with GW0742, FIG. 8
Method: COS-7 were cultured in 6-well plates and co-transfected with either a luciferase reporter driven by 3 copies of a PPRE and expression vector for either PPARδ, PPARα or PPARγ together with a vector harboring cDNA for β-galactosidase, serving as a transfection control. To test whether FABP4 or FABP5 mediate activation of their cognate receptors PPARγ and PPARδ, respectively, cells were also co-transfected with a plasmid harboring sequence of either FABP4 or FABP5. 18 h post-transfection, cells were placed in a serum-free medium and treated with agonist/compound. 18 h. later, cells were lysed, luciferase activity was assayed (Promega, WI, USA) and corrected for transfection efficiency by the activity of β-galactosidase.

[3] = system: LX-2 hepatic stellate cells; assay: Lipid uptake assay, Oil Red O staining of lipid droplets; type: cell-based, human
Method: 1) LX-2: Human LX-2 hepatic stellate cells were treated with compound for 2 days in the presence or absence of 2% lipid mixture (Sigma, USA) in the growth media. Cells were stained with Oil Red O and lipid content was quantified using ImageJ.

[4] = biological target: T1, FABP5 (Homo sapiens, UniProt Q01469); assay: FABP binding assay by fluorescence titration (ANS competition)
T1 construct: made in house
Method: (§2) This example illustrates a binding assay study used to determine the binding affinity of the various inhibitor compounds disclosed herein with the various FABPs: FABP3, FABP4, FABP5 and FABP7.
(§3) Binding assays for FABP3, FABP4, FABP5 and FABP7 were carried out by fluorescence titrations. FABPs were bacterially expressed and purified and the equilibrium dissociation constants (Kd) that characterize their interactions with different compounds were measured by fluorescence competition assays. The method entails two steps as described in e.g., Lin, Q. et al., “Ligand selectivity of the peroxisome proliferator-activated receptor alpha,” Biochemistry 38, 185-190, doi:10.1021/bi9816094 bi9816094 [pii](1999). In the first step, Kd for the association of the protein with the fluorescent fatty acid probe ANS was measured. Protein ([…]) was titrated with ANS from a concentrated solution in DMSO. Ligand binding was monitored by following the increase in the fluorescence of the ligand upon binding to the protein, and Kd for the association of ANS with the each FABP was computed from titration curves as described in e.g., Norris, A. W. & Li, E., “Fluorometric titration of the CRABPs,” Methods Mol Biol 89, 123-139 (1998)). Kds for binding of non-fluorescent ligands were then measured by monitoring their ability to displace ANS in the binding pocket of the protein. Each FABP was pre-complexed with ANS at 1:1 molar ratio and titrated with the different compounds whose binding was reflected by a decrease in probe fluorescence. Kds were extracted from the EC50 of the competition curve and the measured Kd for ANS.
(§4) Binding assays for FABP3, FABP4, FABP5 and FABP7 were carried out by fluorescence titrations as described in Example 16.

[5] = biological target: T2, FABP4 (Homo sapiens, UniProt P15090); assay: as above
T2 construct: made in house
Method: as §2, §3, §4

[6] = system: PPARδ targets PDPK1 and CD47 in TNBC cells MB-231; assay: Real-time PCR of PPARδ targets; type: cell-based; conditions: MB-231, 1 μM, 6 hours
Method: (§5) Cells were treated with a compound for 6 h. then lysed and RNA was extracted using Trizol, according to the manufacturer's instructions. cDNA was generated using GeneAmp RNA PCR (Applied Biosystems). qPCR was carried out using TaqMan chemistry and Assays-on-Demand probes (Applied Biosystems). 18s (4352930) rRNA was used for normalization. Relative expression was calculated as 2^−ΔΔCT.

[7] = system: HepG2 cells; assay: Lipid uptake assay, oleic acid, Nile Red (steatosis model); type: cell-based, human; conditions: OA 1 mM
Method: 2) Hepg2 cells: 5000 cells were plated in 96-well plate. The next day cells were treated with tested compounds for 4 hours and then treated with 1 mM oleic acid for additional 24 hours. Cells were then stained with Nile Red and Dapi and lipid content was quantified using Cytation5 (Agilent).
2) Hepg2 cells: 5000 cells were plated in 96-well plate. The next day cells were treated with tested compounds for 4 hours and then treated with 1 mM oleic acid for additional 24 hours. Cells were then stained with Nile Red and Dapi and lipid content was quantified.

[8] = system: RAW264.7 murine macrophage cells; assay: LPS-stimulated proinflammatory cytokine expression by QPCR; type: cell-based; conditions: B4 0 to 5 μM, then LPS 100 ng/ml
Method: as §5
FIG. 33, FIG. 34, and FIG. 35 show the anti-inflammatory effects of compound B4 on RAW264.7 murine macrophage cells.

[9] = system: 3T3-L1 adipocytes; assay: Lipolysis (glycerol release) in mature adipocytes; type: cell-based, mouse
Method: (§6) 3) 3T3-L1: Mouse 3T3-L1 cells were differentiated in culture according to ATCC protocol to become mature adipocytes. At day 6 of the differentiation, compound treatment started. Cells were stained by Nile Red on day and color intensity in each cell was measured relative to Dapi staining. Lipolysis was measured by measuring glycerol levels using lipolysis kit (Cayman, USA) according to the manufacturer manual.
as §6, with “1)” for “3)”

[10] = system: MB-231 shC and shF5 cells; assay: Proliferation assay, MB-231 lines expressing control shRNA (shC) or FABP5 shRNA (shF5); type: cell-based; conditions: MB-231 shC vs shF5, different concentrations
Method: as §1

T2 sequence (P15090 whole entry, species assumed): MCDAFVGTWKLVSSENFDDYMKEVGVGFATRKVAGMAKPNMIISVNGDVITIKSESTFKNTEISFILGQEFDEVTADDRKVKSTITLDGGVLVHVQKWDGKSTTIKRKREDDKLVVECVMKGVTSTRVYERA
T1 sequence (Q01469 whole entry, species assumed): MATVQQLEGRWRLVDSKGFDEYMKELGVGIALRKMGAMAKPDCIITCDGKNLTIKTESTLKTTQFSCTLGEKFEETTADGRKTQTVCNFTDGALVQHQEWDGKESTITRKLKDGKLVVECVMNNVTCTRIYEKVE

Kd ([4]; FIG. 1A/1B, read-out: binding affinity towards FABP5 (Kd)): < 1000 nM
Kd ([4]; fluorescence competition with ANS, read-out: FABP5 binding): 36 nM
Kd ([5]; FIG. 1A/1B, read-out: binding affinity towards FABP4 (Kd)): < 1000 nM
Kd ([5]; fluorescence competition with ANS, read-out: FABP4 binding): 66 nM
SMILES: CC(C)Oc1cc(NC(=O)CSCC(=O)O)c(Cl)cc1Cl [Compound B4, 2-((2-((2,4-dichloro-5-isopropoxyphenyl)amino)-2-oxoethyl)thio)acetic acid]
growth inhibition of TNBC lines by FABP5 level [1]: inhibited growth of only TNBC lines expressing high FABP5 levels
inhibition of PPARδ activity in cells overexpressing FABP5 [2]: inhibit activity of the nuclear receptors only in cells that express the binding proteins
amount of lipid droplets (Oil Red O) ([3]; B4 alone, activated LX-2 cells): increased the amount of LD in the cells
lipid droplet size ([3]; co-treatment with 2% lipid mix and B4): increases the LD size even more
levels of endogenous PPARδ targets PDPK1 and CD47 [6]: significantly lower
uptake of lipids into hepatocytes (Nile Red) ([7]; B4 0.1 to 5 μM): prevented uptake of lipids into hepatocytes
size of the lipid droplets ([7]; B4 treated cells): significantly smaller droplets
IL-1β mRNA level [8]: lower in the treated cells
IL-6 mRNA level [8]: lower in the treated cells
TNFα mRNA level [8]: lower in the treated cells
basal lipolysis (glycerol release) ([9]; basal): inhibited basal lipolysis
isoproterenol-stimulated lipolysis (glycerol release) ([9]; isoproterenol-stimulated, relative to basal): more potent
TNBC cell growth, shC versus shF5 [10]: suppressed TNBC cell growth only in the cells highly expressing FABP5
